Molecular target: T1, oestrogen receptor (ER) (Homo sapiens, UniProt P03372)
T1 construct: These MVLN cells express, along with the functional oestrogen receptor (ER), a reporter construct; endogenous in cells; host or cells: MVLN cells (MCF7 derivative with ER-responsive luciferase reporter)
T1 sequence (P03372 1-595): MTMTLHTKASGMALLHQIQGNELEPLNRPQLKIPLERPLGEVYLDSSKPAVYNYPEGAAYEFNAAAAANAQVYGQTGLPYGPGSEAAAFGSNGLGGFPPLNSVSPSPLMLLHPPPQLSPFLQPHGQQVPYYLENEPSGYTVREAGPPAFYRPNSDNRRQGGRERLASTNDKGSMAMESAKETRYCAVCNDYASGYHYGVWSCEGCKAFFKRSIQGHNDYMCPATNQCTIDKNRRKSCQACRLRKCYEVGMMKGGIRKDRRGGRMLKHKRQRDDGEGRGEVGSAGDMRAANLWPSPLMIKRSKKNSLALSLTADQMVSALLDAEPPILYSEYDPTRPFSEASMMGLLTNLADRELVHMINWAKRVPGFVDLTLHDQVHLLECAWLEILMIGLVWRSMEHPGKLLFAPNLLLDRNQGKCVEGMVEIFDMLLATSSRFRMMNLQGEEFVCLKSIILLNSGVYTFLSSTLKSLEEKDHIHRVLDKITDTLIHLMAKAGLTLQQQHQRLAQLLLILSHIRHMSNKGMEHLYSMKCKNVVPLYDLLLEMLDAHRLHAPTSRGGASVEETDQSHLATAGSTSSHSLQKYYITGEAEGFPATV
Experiment: Anti-oestrogenic action in MVLN cells (inhibition of estradiol-induced luciferase, transactivation antagonism)
Assay type: cell-based
Settings: inhibition of estradiol-induced luciferase activity, read-out: Anti-oestrogenic action in vitro: MVLN transactivation antagonism IC50
Text: The anti-oestrogenic action of the claimed pharmacological compounds was investigated in so-called MVLN cells in vitro. MVLN cells are derivatives of the hormone-responsive MCF7 breast cancer cells known by a person skilled in the art. These MVLN cells express, along with the functional oestrogen receptor (ER), a reporter construct, which under ER-activation expresses luciferase. Determination of the activity of the induced luciferase permits a direct conclusion on the oestrogen properties of substances. To investigate the anti-oestrogenic properties of the pharmacological compounds, they were investigated in the presence of oestrogen for their potential for inhibiting the luciferase signal induced by estradiol.
The claimed pharmacological test substances were investigated in MVLN cells for their anti-oestrogenic potential, as described (see Table 2).

IC50 [nM]	SMILES
3	CN(CCCCCCC1=C(c2ccc(F)c(O)c2)CCCc2cc(O)ccc21)CCCCC[S+]([O-])CCCC(F)(F)C(F)(F)F (racemic) [Example 32, 8-(4-Fluoro-3-hydroxyphenyl)-9-[6-(methyl{5-[(RS)-(4,4,5,5,5-pentafluoropentyl)sulphinyl]pentyl}amino)hexyl]-6,7-dihydro-5H-benzo[7]annulen-3-ol]
26	CN(CCCCCCC1=C(c2ccccc2)CCCc2cc(O)ccc21)CCCS(=O)(=O)CCC(F)(F)F [Example 60, 9-[6-(Methyl{3-[(3,3,3-trifluoropropyl)sulphonyl]propyl}amino)hexyl]-8-phenyl-6,7-dihydro-5H-benzo[7]annulen-3-ol]
12	O=S(=O)(CCCN(CCO)CCCCCCC1=C(c2ccc(F)c(O)c2)CCCc2c1ccc(O)c2F)CCCC(F)(F)C(F)(F)F [Example 115, 4-Fluoro-8-(4-fluoro-3-hydroxyphenyl)-9-{6-[(2-hydroxyethyl){3-[(4,4,5,5,5-pentafluoropentyl)sulphonyl]propyl}amino]hexyl}-6,7-dihydro-5H-benzo[7]annulen-3-ol]
16	CN(CCCCCCC1=C(c2ccc(F)c(O)c2)CCCc2cc(O)c(F)cc21)CCC[S+]([O-])CCC(F)(F)F (racemic) [Example 125, 2-Fluoro-8-(4-fluoro-3-hydroxyphenyl)-9-[6-(methyl{3-[(RS)-(3,3,3-trifluoropropyl)sulphinyl]propyl}amino)hexyl]-6,7-dihydro-5H-benzo[7]annulen-3-ol]
11	CN(CCCCCCC1=C(c2ccc(F)c(O)c2)CCCc2cc(O)c(F)cc21)CCCS(=O)(=O)CCC(F)(F)C(F)(F)F [Example 123, 2-Fluoro-8-(4-fluoro-3-hydroxyphenyl)-9-[6-(methyl{3-[(3,3,4,4,4-pentafluorobutyl)sulphonyl]propyl}amino)hexyl]-6,7-dihydro-5H-benzo[7]annulen-3-ol]
6	CN(CCCCCCC1=C(c2ccc(F)c(O)c2)CCCc2cc(O)c(F)cc21)CCCC[S+]([O-])CCCC(F)(F)C(F)(F)F (racemic) [Example 124, 2-Fluoro-8-(4-fluoro-3-hydroxyphenyl)-9-[6-(methyl{4-[(RS)-(4,4,5,5,5-pentafluoropentyl)sulphinyl]butyl}amino)hexyl]-6,7-dihydro-5H-benzo[7]annulen-3-ol]
250	CN(CCCCCC1=C(c2ccccc2)CCCc2cc(O)ccc21)CCCCS(=O)(=O)CCC(F)(F)F [Example 111, 9-[5-(Methyl{4-[(3,3,3-trifluoropropyl)sulphonyl]butyl}amino)pentyl]-8-phenyl-6,7-dihydro-5H-benzo[7]annulen-3-ol]
34	CN(CCCCCCC1=C(c2ccc(F)c(O)c2)CCCc2c1ccc(O)c2F)CCCS(=O)(=O)CCC(F)(F)C(F)(F)F [Example 116, 4-Fluoro-8-(4-fluoro-3-hydroxyphenyl)-9-[6-(methyl{3-[(3,3,4,4,4-pentafluorobutyl)sulphonyl]propyl}amino)hexyl]-6,7-dihydro-5H-benzo[7]annulen-3-ol]
6	CN(CCCCCCC1=C(c2ccc(F)c(O)c2)CCCc2cc(O)c(F)cc21)CCC[S+]([O-])CCC(F)(F)C(F)(F)F (racemic) [Example 122, 2-Fluoro-8-(4-fluoro-3-hydroxyphenyl)-9-[6-(methyl{3-[(RS)-(3,3,4,4,4-pentafluorobutyl)sulphinyl]propyl}amino)hexyl]-6,7-dihydro-5H-benzo[7]annulen-3-ol]
9	CC(C)(O)CN(CCCCCCC1=C(c2ccccc2)CCCc2cc(O)ccc21)CCC[S+]([O-])CCC(F)(F)F (racemic) [Example 82, 9-{6-[(2-Hydroxy-2-methylpropyl){3-[(RS)-(3,3,3-trifluoropropyl)sulphinyl]propyl}amino]hexyl}-8-phenyl-6,7-dihydro-5H-benzo[7]annulen-3-ol]
6	CCN(CCCCCCC1=C(c2ccccc2)CCCc2cc(O)ccc21)CCCS(=O)(=O)CCCC(F)(F)C(F)(F)F [Example 69, 9-[6-(Ethyl{3-[(4,4,5,5,5-pentafluoropentyl)sulphonyl]propyl}amino)hexyl]-8-phenyl-6,7-dihydro-5H-benzo[7]annulen-3-ol]
5	CN(CCCCCC1=C(c2cccc(O)c2)CCCc2cc(O)ccc21)CCCS(=O)(=O)CCCC(F)(F)C(F)(F)F [Example 5, 8-(3-Hydroxyphenyl)-9-[5-(methyl{3-[(4,4,5,5,5-pentafluoropentyl)sulphonyl]propyl}amino)pentyl]-6,7-dihydro-5H-benzo[7]annulen-3-ol]
5	CN(CCCCCCC1=C(c2ccccc2)CCCc2cc(O)ccc21)CCCC[S+]([O-])CCCC(F)(F)C(F)(F)F (racemic) [Example 66, 9-[6-(Methyl{4-[(RS)-(4,4,5,5,5-pentafluoropentyl)sulphinyl]butyl}amino)hexyl]-8-phenyl-6,7-dihydro-5H-benzo[7]annulen-3-ol]
7	[O-][S+](CCCNCCCCCC1=C(c2ccccc2)CCCc2cc(O)ccc21)CCCC(F)(F)C(F)(F)F (racemic) [Example 50, 9-[5-({3-[(RS)-(4,4,5,5,5-Pentafluoropentyl)sulphinyl]propyl}amino)pentyl]-8-phenyl-6,7-dihydro-5H-benzo[7]annulen-3-ol]
17	CN(CCCCCCC1=C(c2ccc(C#N)cc2)CCCc2cc(O)ccc21)CCCS(=O)(=O)CCCC(F)(F)C(F)(F)F [Example 22, 4-{3-Hydroxy-9-[6-(methyl{3-[(4,4,5,5,5-pentafluoropentyl)sulphonyl]propyl}amino)hexyl]-6,7-dihydro-5H-benzo[7]annulen-8-yl}benzonitrile]
11	CN(CCCCCCC1=C(c2ccc(F)c(O)c2)CCCc2cc(O)ccc21)CCCCCCS(=O)(=O)CCCC(F)(F)C(F)(F)F [Example 35, 8-(4-Fluoro-3-hydroxyphenyl)-9-[6-(methyl{6-[(4,4,5,5,5-pentafluoropentyl)sulphonyl]hexyl}amino)hexyl]-6,7-dihydro-5H-benzo[7]annulen-3-ol]
9	CCN(CCCCCCC1=C(c2cccc(O)c2)CCCc2cc(O)ccc21)CCC[S+]([O-])CCC(F)(F)F (racemic) [Example 94, 9-[6-(Ethyl{3-[(RS)-(3,3,3-trifluoropropyl)sulphinyl]propyl}amino)hexyl]-8-(3-hydroxyphenyl)-6,7-dihydro-5H-benzo[7]annulen-3-ol]
2	CN(CCCCCCC1=C(c2ccc(F)c(O)c2)CCCc2cc(O)ccc21)CCCC[S+]([O-])CCCC(F)(F)C(F)(F)F (racemic) [Example 30, 8-(4-Fluoro-3-hydroxyphenyl)-9-[6-(methyl{4-[(RS)-(4,4,5,5,5-pentafluoropentyl)sulphinyl]butyl}amino)hexyl]-6,7-dihydro-5H-benzo[7]annulen-3-ol]
5	CN(CCCCCCC1=C(c2ccc(F)c(O)c2)CCCc2cc(O)c(F)cc21)CCCCS(=O)(=O)CCCC(F)(F)F [Example 128, 2-Fluoro-8-(4-fluoro-3-hydroxyphenyl)-9-[6-(methyl{4-[(4,4,4-trifluorobutyl)sulphonyl]butyl}amino)hexyl]-6,7-dihydro-5H-benzo[7]annulen-3-ol]
3	O=S(=O)(CCCN(CCO)CCCCCCC1=C(c2cccc(O)c2)CCCc2cc(O)ccc21)CCCC(F)(F)C(F)(F)F [Example 91, 9-{6-[(2-Hydroxyethyl){3-[(4,4,5,5,5-pentafluoropentyl)sulphonyl]propyl}amino]hexyl}-8-(3-hydroxyphenyl)-6,7-dihydro-5H-benzo[7]annulen-3-ol]
13	O=S(=O)(CCCN(CCO)CCCCCCC1=C(c2ccccc2)CCCc2cc(O)ccc21)CCCC(F)(F)C(F)(F)F [Example 71, 9-{6-[(2-Hydroxyethyl){3-[(4,4,5,5,5-pentafluoropentyl)sulphonyl]propyl}amino]hexyl}-8-phenyl-6,7-dihydro-5H-benzo[7]annulen-3-ol]
2	CC(C)(O)CN(CCCCCCC1=C(c2cccc(O)c2)CCCc2cc(O)ccc21)CCC[S+]([O-])CCC(F)(F)F (racemic) [Example 97, 9-{6-[(2-Hydroxy-2-methylpropyl){3-[(RS)-(3,3,3-trifluoropropyl)sulphinyl]propyl}amino]hexyl}-8-(3-hydroxyphenyl)-6,7-dihydro-5H-benzo[7]annulen-3-ol]
34	CN(CCCCCC1=C(c2ccc(S(C)(=O)=O)cc2)CCCc2cc(O)ccc21)CCCS(=O)(=O)CCCC(F)(F)C(F)(F)F [Example 47, 8-(4-Mesylphenyl)-9-[5-(methyl{3-[(4,4,5,5,5-pentafluoropentyl)sulphonyl]propyl}amino)pentyl]-6,7-dihydro-5H-benzo[7]annulen-3-ol]

From patent US20150080438A1, “6,7-Dihydro-5H-benzo[7]annulene derivatives, processes for their preparation, pharmaceutical products comprising them and their use for preparing medicaments” (Bayer Intellectual Property GmbH, priority 2011, published 2015)
